The target of the test is T1, human orexin type 2 receptor (Homo sapiens, UniProt O43614).
T1 construct: expressed in transfected cells
T1 sequence (O43614 1-444): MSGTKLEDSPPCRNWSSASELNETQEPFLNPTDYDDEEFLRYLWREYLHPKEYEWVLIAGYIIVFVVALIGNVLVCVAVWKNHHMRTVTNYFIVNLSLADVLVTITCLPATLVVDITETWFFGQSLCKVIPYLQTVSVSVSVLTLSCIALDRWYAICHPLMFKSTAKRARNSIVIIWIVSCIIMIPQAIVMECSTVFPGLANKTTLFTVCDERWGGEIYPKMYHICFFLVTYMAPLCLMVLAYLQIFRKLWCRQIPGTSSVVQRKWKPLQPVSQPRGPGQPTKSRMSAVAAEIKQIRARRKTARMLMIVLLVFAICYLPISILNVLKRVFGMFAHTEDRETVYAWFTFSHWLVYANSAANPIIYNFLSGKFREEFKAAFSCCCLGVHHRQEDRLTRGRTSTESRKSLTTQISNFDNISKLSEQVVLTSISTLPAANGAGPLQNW
Kind of test: Measurement of orexin type 2 receptor agonist activity (calcium indicator fluorescence, CHO cells forcibly expressing human OX2 receptor). In kind it is cell-based. Conditions: compound at 3 μM; 0% = DMSO, 100% = orexin A (human) 10 nM. In short, it runs like this:
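Agonist response normalised between vehicle (0%) and orexin A at 10 nM final (100%), from kinetic Fluo-4 calcium signals recorded for about 2 min after compound addition. Cells: stable human OX2R CHO clone, dye-loaded 30 min at 37 °C plus 30 min at room temperature.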
Turning to `Cc1ccc(F)c(-c2cccc(C[C@H]3[C@@H](NS(=O)(=O)C4CC4)[C@@H](F)CN3C(=O)C3CCO3)c2F)c1` (stereo partly drawn) [Example 488, N-[(2S,3R,4S)-2-[(2,2′-difluoro-5′-methyl[1,1′-biphenyl]-3-yl)methyl]-4-fluoro-1-(oxetane-2-carobnyl)pyrrolidin-3-yl]cycloproapnesulfonamide], the “OX2R agonist activity (3 μM, %)” value worked out at 95%.

As for `Cc1cccc(-c2cccc(C[C@H]3[C@@H](NS(=O)(=O)C4CC4)[C@@H](F)CN3C(=O)C3CCO3)c2F)c1` (stereo partly drawn) [Example 489, N-[(2S,3R,4S)-4-fluoro-2-[(2-fluoro-3′-methyl[1,1′-biphenyl]-3-yl)methyl]-1-(oxetane-2-carbonyl)pyrrolidin-3-yl]cyclopropanesulfonamide], the “OX2R agonist activity (3 μM, %)” value was 92%.

On to `Cc1cccc(-c2cccc(C[C@H]3[C@@H](NS(=O)(=O)C4CC4)[C@@H](F)CN3C(=O)C3CCO3)c2F)c1F` (stereo partly drawn) [Example 490, N-[(2S,3R,4S)-2-[(2,2′-difluoro-3′-methyl[1,1′-biphenyl]-3-yl)methyl]-4-fluoro-1-(oxetane-2-carobnyl)pyrrolidin-3-yl]cyclopropanesulfonamide], for which the “OX2R agonist activity (3 μM, %)” value was 93%. To `Cc1cc(F)cc(-c2cccc(C[C@H]3[C@@H](NS(=O)(=O)C4CC4)[C@@H](F)CN3C(=O)C3CCO3)c2F)c1` (stereo partly drawn) [Example 491, N-[(2S,3R,4S)-2-[(2,3′-difluoro-5′-methyl[1,1′-biphenyl]-3-yl)methyl]-4-fluoro-1-(oxetane-2-carbonyl)pyrrolidin-3-yl]cyclopropanesulfonamide] belongs 93%; to `Cc1ccc(F)c(-c2cccc(C[C@H]3[C@@H](NS(=O)(=O)C4CC4)[C@@H](F)CN3C(=O)C3CCO3)c2F)c1` (stereo partly drawn) [Example 492, N-[(2S,3R,4S)-2-[(2,2′-difluoro-5′-methyl[1,1′-biphenyl]-3-yl)methyl]-4-fluoro-1-(oxetane-2-carbonyl)pyrrolidin-3-yl]cyclopropanesulfonamide], 90%. To `O=C(C1CCO1)N1C[C@H](F)[C@H](NS(=O)(=O)C2CC2)[C@@H]1Cc1cccc(-c2cc(F)cc(F)c2)c1F` (stereo partly drawn) [Example 493, N-{(2S,3R,4S)-4-fluoro-1-(oxetane-2-carbonyl)-2-[(2,3′,5′-trifluoro[1,1′-biphenyl]-3-yl)methyl]pyrrolidin-3-yl}cyclopropanesulfonamide] belongs 95%; to `O=C(C1CCO1)N1C[C@H](F)[C@H](NS(=O)(=O)C2CC2)[C@@H]1Cc1cccc(-c2cccc(F)c2F)c1F` (stereo partly drawn) [Example 494, N-{(2S,3R,4S)-4-fluoro-1-(oxetane-2-carbonyl)-2-[(2,2′,3′-trifluoro[1,1′-biphenyl]-3-yl)methyl]pyrrolidin-3-yl}cyclopropanesulfonamide], 96%. Next, `O=C(C1CCO1)N1C[C@H](F)[C@H](NS(=O)(=O)C2CC2)[C@@H]1Cc1cccc(-c2cc(F)ccc2F)c1F` (stereo partly drawn) [Example 495, N-{(2S,3R,4S)-4-fluoro-1-(oxetane-2-carbonyl)-2-[(2,2′,5′-trifluoro[1,1′-biphenyl]-3-yl)methyl]pyrrolidin-3-yl}cyclopropanesulfonamide]: 92%; `O=C(C1CCO1)N1C[C@H](F)[C@H](NS(=O)(=O)C2CC2)[C@@H]1Cc1cccc(-c2ccccc2)c1F` (stereo partly drawn) [Example 496, N-[(2S,3R,4S)-4-fluoro-2-[(2-fluoro[1,1′-biphenyl]-3-yl)methyl]-1-(oxetane-2-carbonyl)pyrrolidin-3-yl]cyclopropanesulfonamide]: 95%.

Take `O=C(C1CCO1)N1C[C@H](F)[C@H](NS(=O)(=O)C2CC2)[C@@H]1Cc1cccc(-c2cccc(Cl)c2)c1F` (stereo partly drawn) [Example 497, N-[(2S,3R,4S)-2-[(3′-chloro-2-fluoro[1,1′-biphenyl]-3-yl)methyl]-4-fluoro-1-(oxetane-2-carbonyl)pyrrolidin-3-yl]cyclopropanesulfonamide]: the “OX2R agonist activity (3 μM, %)” value is recorded as 91%. Consider `CCS(=O)(=O)N[C@H]1[C@@H](F)CN(C(=O)C2CCO2)[C@H]1Cc1cccc(-c2cccc(C)c2)c1F` (stereo partly drawn) [Example 498, N-[(2S,3R,4S)-4-fluoro-2-[(2-fluoro-3′-methyl[1,1′-biphenyl]-3-yl)methyl]-1-(oxetane-2-carbonyl)pyrrolidin-3-yl]ethanesulfonamide], for which the “OX2R agonist activity (3 μM, %)” value is on record as 99%. As to `CCS(=O)(=O)N[C@H]1[C@@H](F)CN(C(=O)C2CCO2)[C@H]1Cc1cccc(-c2cccc(C)c2F)c1F` (stereo partly drawn) [Example 499, N-[(2S,3R,4S)-2-[(2,2′-difluoro-3′-methyl[1,1′-biphenyl]-3-yl)methyl]-4-fluoro-1-(oxetane-2-carbonyl)pyrrolidin-3-yl]ethanesulfonamide], the “OX2R agonist activity (3 μM, %)” value worked out at 96%.

In the case of `CCS(=O)(=O)N[C@H]1[C@@H](F)CN(C(=O)C2CCO2)[C@H]1Cc1cccc(-c2ccc(F)c(C)c2)c1F` (stereo partly drawn) [Example 500, N-[(2S,3R,4S)-2-[(2,4′-difluoro-3′-methyl[1,1′-biphenyl]-3-yl)methyl]-4-fluoro-1-(oxetane-2-carbonyl)pyrrolidin-3-yl]ethanesulfonamide], the “OX2R agonist activity (3 μM, %)” value amounted to 98%. Consider `CCS(=O)(=O)N[C@H]1[C@@H](F)CN(C(=O)C2CCO2)[C@H]1Cc1cccc(-c2cc(C)cc(F)c2)c1F` (stereo partly drawn) [Example 501, N-[(2S,3R,4S)-2-[(2,3′-difluoro-5′-methyl[1,1′-biphenyl]-3-yl)methyl]-4-fluoro-1-(oxetane-2-carbonyl)pyrrolidin-3-yl]ethanesulfonamide], for which the “OX2R agonist activity (3 μM, %)” value was found to be 96%. In the case of `CCS(=O)(=O)N[C@H]1[C@@H](F)CN(C(=O)C2CCO2)[C@H]1Cc1cccc(-c2cc(C)ccc2F)c1F` (stereo partly drawn) [Example 502, N-[(2S,3R,4S)-2-[(2,2′-difluoro-5′-methyl[1,1′-biphenyl]-3-yl)methyl]-4-fluoro-1-(oxetane-2-carbonyl)pyrrolidin-3-yl]ethanesulfonamide], the “OX2R agonist activity (3 μM, %)” value stood at 96%. To `CCS(=O)(=O)N[C@@H]1[C@H](Cc2cccc(-c3cccc(C(F)F)c3)c2F)N(C(=O)C2CCO2)CC1(F)F` (stereo partly drawn) [Example 503, N-[(2S,3R)-2-{[3′-(difluoromethyl)-2-fluoro[1,1′-biphenyl]-3-yl]methyl}-4,4-difluoro-1-(oxetane-2-carbonyl)pyrrolidin-3-yl]ethanesulfonamide] belongs 89%; to `CCS(=O)(=O)N[C@@H]1[C@H](Cc2cccc(-c3cccc(C(F)F)c3)c2F)N(C(=O)C2CCO2)CC1(F)F` (stereo partly drawn) [Example 504, N-[(S,3R)-2-{[3′-(difluoromethyl)-2-fluoro[1,1′-biphenyl]-3-yl]methyl}-4,4-difluoro-1-(oxetane-2-carbonyl)pyrrolidin-3-yl]ethanesulfonamide], 90%. Next, `CCS(=O)(=O)N[C@@H]1[C@H](Cc2cccc(-c3cccc(C(F)F)c3)c2F)N(C(=O)C2CC(F)C2)CC1(F)F` (stereo partly drawn) [Example 505, N-[(2S,3R)-2-{[3′-(difluoromethyl)-2-fluoro[1,1′-biphenyl]-3-yl]methyl}-4,4-difluoro-1-(3-fluorocyclobutane-1-carbonyl)pyrrolidin-3-yl]ethanesulfonamide]: 88%; `CCS(=O)(=O)N[C@@H]1[C@H](Cc2cccc(-c3cccc(C(F)F)c3)c2F)N(C(=O)C2CC(F)C2)CC1(F)F` (stereo partly drawn) [Example 506, N-[(2S,3R)-2-{[3′-(difluoromethyl)-2-fluoro[1,1′-biphenyl]-3-yl]methyl}-4,4-difluoro-1-(3-fluorocyclobutane-1-carobnyl)pyrrolidin-3-yl]ethanesulfonamide]: 100%; `CCS(=O)(=O)N[C@@H]1[C@H](Cc2cccc(-c3cccc(C(F)F)c3)c2F)N(C(=O)C(C)C)CC1(F)F` [Example 507, N-[(2S,3R)-2-{[3′-(difluoromethyl)-2-fluoro[1,1′-biphenyl]-3-yl]methyl}-4,4-difluoro-1-(2-methylpropanoyl)pyrrolidin-3-yl]ethanesulfonamide]: 97%. To `CCS(=O)(=O)N[C@@H]1[C@H](Cc2cccc(-c3cccc(C(F)F)c3)c2F)N(C(=O)C2CC2)CC1(F)F` [Example 508, N-[(2S,3R)-1-(cyclopropanecarbonyl)-2-{[3′-(difluoromethyl)-2-fluoro[1,1′-biphenyl]-3-yl]methyl}-4,4-difluoropyrrolidin-3-yl]ethanesulfonamide] belongs 96%; to `CCS(=O)(=O)N[C@@H]1[C@H](Cc2cccc(-c3cccc(C(F)F)c3)c2F)N(C(=O)C23CC(C2)C3)CC1(F)F` [Example 509, N-[(2S,3R)-1-(bicyclo[1.1.1]pentane-1-carbonyl)-2-{[3′-(difluoromethyl)-2-fluoro[1,1′-biphenyl]-3-yl]methyl}-4,4-difluoropyrrolidin-3-yl]ethanesulfonamide], 85%; to `CCS(=O)(=O)N[C@@H]1[C@H](Cc2cccc(-c3cccc(OC)c3)c2F)N(C(=O)C23CC(C2)C3)CC1(F)F` [Example 510, N-{(2S,3R)-1-(bicyclo[1.1.1]pentane-1-carbonyl)-4,4-difluoro-2-[(2-fluoro-3′-methoxy[1,1′-biphenyl]-3-yl)methyl]pyrrolidin-3-yl}ethanesulfonamdie], 97%.

(Values after patent US20230040770A1, “HETEROCYCLIC COMPOUND AND USE THEREOF” (TAKEDA PHARMACEUTICAL COMPANY LIMITED, priority 2019, published 2023).)
